According to patent US20220194938A1, “NOVEL COMPOUNDS AND PHARMACEUTICAL COMPOSITIONS THEREOF FOR THE TREATMENT OF INFLAMMATORY DISORDERS” (GALAPAGOS NV, priority 2019, published 2022):
pIC50: −log10 of the molar value.

Key:
[1] = target: T1, human IRAK-4 (Homo sapiens, UniProt Q9NWZ3); test: Phosphorylation IC50 determination for human IRAK-4 (ADP-Glo kinase assay); conditions: human IRAK-4, RIP140 substrate, Km ATP; read-out: IRAK4 ADPglo biochemical assay IC50
T1 construct: purchased Carna Biosciences 09 145
T1 sequence (Q9NWZ3 1-460): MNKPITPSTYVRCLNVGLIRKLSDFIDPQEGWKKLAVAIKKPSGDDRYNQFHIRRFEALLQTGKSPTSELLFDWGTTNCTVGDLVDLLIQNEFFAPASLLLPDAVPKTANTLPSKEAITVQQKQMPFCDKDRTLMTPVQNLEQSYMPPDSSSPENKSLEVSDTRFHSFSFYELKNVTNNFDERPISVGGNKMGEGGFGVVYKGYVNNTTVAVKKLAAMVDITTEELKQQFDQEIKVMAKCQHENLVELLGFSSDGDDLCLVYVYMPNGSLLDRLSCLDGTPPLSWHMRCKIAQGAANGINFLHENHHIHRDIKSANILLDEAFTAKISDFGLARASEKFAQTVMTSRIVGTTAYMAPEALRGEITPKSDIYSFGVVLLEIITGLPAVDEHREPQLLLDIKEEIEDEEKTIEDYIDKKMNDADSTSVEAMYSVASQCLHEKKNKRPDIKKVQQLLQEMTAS
Procedure: 3.1. Phosphorylation IC50 Determination for Human IRAK-4
The phosphorylation of the substrate RIP140 (SEQ ID1) by IRAK4 at Km ATP was detected with the ADP-Glo Kinase Assay (Promega, Cat #V9103), a luminescent kinase assay which measures the ADP formed from a kinase reaction. (Zegzouti et al. 2009) In a second step the kinase reaction was terminated and all the remaining ATP was depleted. In a final step the ADP was converted into ATP and this newly synthesized ATP was measured by using a luciferase/luciferin reaction with a luminescent reader. The luminescent signal positively correlated with kinase activity, in particular kinase inhibition giving a decrease of the luminescent signal.
For the semi-automated assay, the positive control (100% inhibition) was prepared by diluting 10 mM staurosporine stock mixture (20 μL) in water (3.8 mL) and DMSO (180 μL), thus resulting in a […] staurosporine solution at 1% DMSO (final concentration after further dilution in the kinase reaction).
For the automated assay, no pre-dilution of the 10 mM staurosporine stock was made. 10 mM staurosporine was spotted directly in the assay plate using acoustic dispensing and complemented with DMSO to result in a similar final concentration as mentioned above.
For the semi-automated assay, the negative control (0% inhibition) was prepared by mixing water (3.8 mL) and DMSO (200 μL) resulting in a final concentration of 1% DMSO after further dilution in the kinase reaction. For the automated assay no pre-dilution of DMSO was done. 100% DMSO was spotted directly on the assay plate.
The assay buffer solution was prepared at a concentration corresponding to 5 fold the final (most diluted) assay concentration by mixing a solution of 125 mM TRIS pH 7.5+0.05% Triton X-100+2.5 mM EGTA (5.27 mL) with 1M mgCl2 (72 μL), 1M DTT (57.6 μL), and 200 mM MnCl2 (360 μL).
For example, for the semi-automated method, the enzyme-substrate mixture was prepared by mixing water (3999 μL), assay buffer solution (1380 μL), 1 mM RIP140 (138 μL—SEQ ID1), and 200 ng/mL IRAK 4 (3.45 μL Carna Biosciences, 09 145).
For semi-automated method, the ATP mixture was prepared at a concentration corresponding to 2.5 fold the final (most diluted) assay concentration of the semi-automated method and 1.5 fold the final (most diluted) assay concentration of the automated method. For example, for the semi-automated method, the ATP mixture was prepared by mixing water (4126 μL), assay buffer solution (1380 μL), and 10 mM ATP (13.80 μL).
The assay was performed either in a semi-automated or fully automated manner. The assay volume and the incubation time of the ADP detection were different accordingly the method used.
3.1.3.1. Semi-Automated Assay
The compounds were prepared as a serial dilution of 10 point dose responses with 1/5 dilution steps in 100% DMSO starting from 2 mM highest concentration, diluted 1/20 in water. 1 μL was transferred dry to the assay plates.
On each assay plate 32 wells of each control (positive & negative) were added, followed by 2 μL enzyme-substrate mixture.
The reaction was started by adding 2 μL diluted ATP (final concentration Km ATP) on the assay plates. Plates were centrifuged for a few seconds at 1000 rpm followed by an incubation at r.t. for 120 min.
The reactions were stopped and the unconsumed ATP was depleted by adding 5 μL ADP-glo Reagent (Promega, Cat #V9103) to the reaction. The plates were quickly centrifuged at 1000 rpm and incubated at r.t. for 40 min corresponding to full ATP depletion.
The ADP was converted back to ATP and luciferase and luciferin were introduced to detect ATP by adding 10 μL kinase detection reagent (Promega, Cat #V9103) to the reaction. The plates were centrifuged for a few seconds at 1000 rpm and incubated at r.t. for a further 30 min.
Luminescent read out was performed on an Envision luminescent reader (Perkin Elmer). […]

[2] = tested on: pooled cryopreserved hepatocytes; test: Metabolic stability in hepatocytes (mouse); type: in vitro ADME; conditions: 1 μM test compound
Procedure: (§1) 4.6. Metabolic Stability in Hepatocytes
(§2) The aim of this assay is to determine the metabolic stability of the compound in hepatocytes (cryopreserved) of different species. Low hepatocyte stability may result in the formation of unwanted metabolites, high clearance, and therefore is not desirable.
(§3) The decrease in parent was assessed by measuring the percentage remaining by LC-MS/MS analysis.
(§4) A 10 mM stock solution of test compound in DMSO was first diluted in DMSO to 3 mM, and then in modified Krebs-Henseleit buffer (Sigma, K3753) to 5 μM. This compound dilution was added to a suspension of pooled cryopreserved hepatocytes (BioreclamationIVT) at 37° C. under gentle shaking.
(§5) Final reaction conditions were: 1 μM of test compound, 0.03% DMSO, 0.5 million viable hepatocytes/mL, and 75 μL incubation volume.
(§6) Testosterone (1 μM) and 7-hydroxycoumarin (1 μM) were used, respectively as phase I and phase II metabolic reaction controls.
(§7) After 0, 10, 20, 45, 90, 120 and 180 min of incubation, the reaction was terminated with 225 μL of MeCN:MeOH (2:1) containing 100 ng/mL of diclofenac as analytical internal standard. Samples were mixed, centrifuged and the supernatant analyzed by LC-MS/MS.
(§8) The instrument responses (ratios of test compound and internal standard peak areas) were referenced to the zero time point samples (considered as 100%) in order to determine the percentage of compound remaining.
(§9) Plots of percentage compound remaining are used to determine the intrinsic clearance in the hepatocyte incubations using the following equations:
(§10) Scaled Clint[L/h/kg]=Clint[μL/min/10^6 cells]*#(10^6) cells/g liver*60*(1/10^6) Scaled Clint unbound [L/h/kg]=Clint [L/h/kg]/Fu,inc where: fu,inc equals hepatocyte binding, derived from microsomal binding (fu,mic) by following equation: […]

[3] = tested on: pooled cryopreserved hepatocytes; test: Metabolic stability in hepatocytes (human); type: in vitro ADME; conditions: 1 μM test compound
Procedure: as §1, §2, §3, §4, §5, §6, §7, §8, §9, §10

Row | Structure (SMILES) | pIC50 [1] | Mouse (Perc. remaining at 90 min) [2] [%] | Human (Perc. remaining at 90 min) [3] [%]
1 | COc1cc2nc(CCC(C)(C)O)cn2cc1NC(=O)c1cccc(CC#N)n1 [Compound 14, 6-(cyanomethyl)-N-[2-(3-hydroxy-3-methyl-butyl)-7-methoxy-imidazo[1,2-a]pyridin-6-yl]pyridine-2-carboxamide] | 8.00 to 8.30 | 23.5 | 89.95
2 | COc1cc2nc(CCC(C)(C)O)cn2cc1NC(=O)c1ccc(F)c(C)n1 [Compound 15, 5-fluoro-N-[2-(3-hydroxy-3-methyl-butyl)-7-methoxy-imidazo[1,2-a]pyridin-6-yl]-6-methyl-pyridine-2-carboxamide] | 8.30 to 10.00 | 60.05 | 48.5
3 | COc1cc2nc(CCC(C)(C)O)cn2cc1NC(=O)c1cncc(C)n1 [Compound 16, N-[2-(3-hydroxy-3-methyl-butyl)-7-methoxy-imidazo[1,2-a]pyridin-6-yl]-6-methyl-pyrazine-2-carboxamide] | 7.30 to 8.00 | 74.55 | 29.2
4 | COc1cc2nc(CCC(C)(C)O)cn2cc1NC(=O)c1cccc(CO)n1 [Compound 21, 6-(hydroxymethyl)-N-[2-(3-hydroxy-3-methyl-butyl)-7-methoxy-imidazo[1,2-a]pyridin-6-yl]pyridine-2-carboxamide] | 8.30 to 10.00 | 34.9 | 71.95
5 | COc1cc2nc(CCC(C)(C)O)cn2cc1NC(=O)c1cccn(C(C)C)c1=O [Compound 22, N-[2-(3-hydroxy-3-methyl-butyl)-7-methoxy-imidazo[1,2-a]pyridin-6-yl]-1-isopropyl-2-oxo-pyridine-3-carboxamide] | 7.30 to 8.00 | 74.1 | 99.75
6 | COc1cc2nc(CCS(C)(=O)=O)cn2cc1NC(=O)c1cccn(C(F)F)c1=O [Compound 26, 1-(difluoromethyl)-N-[7-methoxy-2-(2-methylsulfonylethyl)imidazo[1,2-a]pyridin-6-yl]-2-oxo-pyridine-3-carboxamide] | 8.00 to 8.30 |  | 106
7 | CN(C)C(=O)c1cc2nc(CCC(C)(C)O)cn2cc1NC(=O)c1cccc(C(F)(F)F)n1 [Compound 27, 2-(3-hydroxy-3-methyl-butyl)-N,N-dimethyl-6-[[6-(trifluoromethyl)pyridine-2-carbonyl]amino]imidazo[1,2-a]pyridine-7-carboxamide] | 7.30 to 8.00 | 108.1 | 95.6
8 | CC(C)(O)CCc1cn2cc(NC(=O)c3cccc(C(F)(F)F)n3)c(C(=O)N3CCC3)cc2n1 [Compound 28, N-[7-(azetidine-1-carbonyl)-2-(3-hydroxy-3-methyl-butyl)imidazo[1,2-a]pyridin-6-yl]-6-(trifluoromethyl)pyridine-2-carboxamide] | 7.30 to 8.00 | 96.25 | 93.5
9 | CCOc1cc2nc(CCC(C)(C)O)cn2cc1NC(=O)c1cccn(C)c1=O [Compound 29, N-[7-ethoxy-2-(3-hydroxy-3-methyl-butyl)imidazo[1,2-a]pyridin-6-yl]-1-methyl-2-oxo-pyridine-3-carboxamide] | 7.30 to 8.00 | 95.2 | 98.85
10 | COc1cc2nc(CCC(C)(C)O)cn2cc1NC(=O)c1cccc(Cl)n1 [Compound 34, 6-chloro-N-[2-(3-hydroxy-3-methylbutyl)-7-methoxyimidazo[1,2-a]pyridin-6-yl]pyridine-2-carboxamide] | 8.00 to 8.30 | 6.59 | 49.8
11 | CC(C)(O)CCc1cn2cc(NC(=O)c3cccc(C(F)(F)F)n3)c(C(=O)NCCO)cc2n1 [Compound 40, 2-(3-hydroxy-3-methylbutyl)-N-(2-hydroxyethyl)-6-(6-(trifluoromethyl)picolinamido)imidazo[1,2-a]pyridine-7-carboxamide] | 8.30 to 10.00 | 94.55 | 94.65
